How the values were obtained:
P-gp = P-gp (Homo sapiens, UniProt P08183); conditions: efflux transporter; cited from earlier work
BSEP = BSEP (Homo sapiens, UniProt O95342); conditions: efflux transporter; cited from earlier work
BCRP = target: T1, BCRP (Homo sapiens, UniProt Q9UNQ0); conditions: efflux transporter; cited from earlier work
T1 sequence (Q9UNQ0 1-655): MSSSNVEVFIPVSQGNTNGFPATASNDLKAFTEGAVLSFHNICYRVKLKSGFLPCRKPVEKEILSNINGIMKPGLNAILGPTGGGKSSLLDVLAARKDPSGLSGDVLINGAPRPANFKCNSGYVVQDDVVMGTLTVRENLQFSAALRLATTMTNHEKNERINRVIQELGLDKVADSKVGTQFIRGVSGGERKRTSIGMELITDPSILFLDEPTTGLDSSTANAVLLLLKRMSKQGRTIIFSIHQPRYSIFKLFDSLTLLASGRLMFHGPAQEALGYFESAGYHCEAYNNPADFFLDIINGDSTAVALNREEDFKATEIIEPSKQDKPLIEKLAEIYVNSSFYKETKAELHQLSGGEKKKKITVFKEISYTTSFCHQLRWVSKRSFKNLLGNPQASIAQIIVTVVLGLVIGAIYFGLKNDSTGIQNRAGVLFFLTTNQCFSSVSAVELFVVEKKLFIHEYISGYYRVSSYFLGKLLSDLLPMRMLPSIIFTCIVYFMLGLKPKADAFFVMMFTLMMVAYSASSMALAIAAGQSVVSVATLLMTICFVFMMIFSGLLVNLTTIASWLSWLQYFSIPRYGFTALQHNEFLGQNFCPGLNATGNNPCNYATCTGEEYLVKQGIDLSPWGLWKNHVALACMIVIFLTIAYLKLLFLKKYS

[1] = Phase 2a open-label combination study, pharmacokinetics; format: in vivo, human
Method: A randomized, Phase 2a, open-label study was carried out to evaluate the safety, pharmacokinetics and efficacy of the combination of Compound (III), Odalasvir and Simeprevir in Genotype 1 treatment-naïve subjects with chronic hepatitis C. Other treatment-naïve subjects included Genotype 2, 3, 4, 5 and 6. The aim of the study was to determine the efficacy, pharmacokinetics (PK), and safety of Compound (III)+Odalasvir±SMV in HCV-infected subjects. […] Efficacy, PK and safety evaluations were conducted during and through 24 weeks post dosing. Up to 15 cohorts were enrolled; data was generated from cohorts that have completed dosing.

MRP2/3 = MRP2/3 (Homo sapiens, UniProt O15438); conditions: efflux transporter; cited from earlier work
MRP2 = MRP2 (Homo sapiens, UniProt Q92887); conditions: efflux transporter; cited from earlier work
[2] = PK of single agents versus fixed dose combinations, single dose in healthy volunteers; format: in vivo, human; conditions: for t1/2term: mean ± SD
Method: SMV (100 mg), ODV (50 mg), and Compound (III) (800 mg) were administered as three different formulations or together as single doses in vivo to healthy volunteers. The arms of the study included: • Arm 1 (Reference Arm): Single oral doses of single agents, one SMV 100-mg capsule, one ODV 50-mg tablet as granule layered solid dispersion with copovidone and poloxamers, and two Compound (III) 400-mg tablets, administered together. • Arm 2: Single oral dose of fixed dose combination (FDC02): SMV 100 mg+ODV 50 mg as a spray dried solid dispersion with HPMC-AS L in a ratio ODV/HPMC-AS L 1/1 w/w+Compound (III) 800 mg • Arm 3: Single oral dose of fixed dose combination (FDC04): SMV 100 mg+ODV 50 mg as a spray dried solid dispersion with HPMC-AS L in a ratio ODV/HPMC-AS L 1/3 w/w+Compound (III) 800 mg • Arm 4: Single oral dose of fixed dose combination (FDC01): SMV 100 mg+ODV 50 mg as a spray dried solid dispersion with copovidone and poloxamers+Compound (III) 800 mg
PK parameters, including Cmax, tmax, AUClast, and AUC∞ were measured for Compound (III), ODV, SMV, and metabolites Compound A-I and Compound A-3 for each Arm of the study. Arms that included fixed dose combinations (FDC) (Arm 2, Arm 3, and Arm 4) were then compared to a single oral dose (Arm 1, the reference Arm). Table 9, Table 10, Table 11, Table 12 and Table 13 display relevant PK parameters and FIG. 9, FIG. 10, FIG. 11, FIG. 12, and FIG. 13 depict the plasma concentration over time of SMV, ODV, Compound A-1, and Compound A-3 for each Arm of the study.

CYP = CYP inhibition

P-gp, sequence (P08183 whole entry): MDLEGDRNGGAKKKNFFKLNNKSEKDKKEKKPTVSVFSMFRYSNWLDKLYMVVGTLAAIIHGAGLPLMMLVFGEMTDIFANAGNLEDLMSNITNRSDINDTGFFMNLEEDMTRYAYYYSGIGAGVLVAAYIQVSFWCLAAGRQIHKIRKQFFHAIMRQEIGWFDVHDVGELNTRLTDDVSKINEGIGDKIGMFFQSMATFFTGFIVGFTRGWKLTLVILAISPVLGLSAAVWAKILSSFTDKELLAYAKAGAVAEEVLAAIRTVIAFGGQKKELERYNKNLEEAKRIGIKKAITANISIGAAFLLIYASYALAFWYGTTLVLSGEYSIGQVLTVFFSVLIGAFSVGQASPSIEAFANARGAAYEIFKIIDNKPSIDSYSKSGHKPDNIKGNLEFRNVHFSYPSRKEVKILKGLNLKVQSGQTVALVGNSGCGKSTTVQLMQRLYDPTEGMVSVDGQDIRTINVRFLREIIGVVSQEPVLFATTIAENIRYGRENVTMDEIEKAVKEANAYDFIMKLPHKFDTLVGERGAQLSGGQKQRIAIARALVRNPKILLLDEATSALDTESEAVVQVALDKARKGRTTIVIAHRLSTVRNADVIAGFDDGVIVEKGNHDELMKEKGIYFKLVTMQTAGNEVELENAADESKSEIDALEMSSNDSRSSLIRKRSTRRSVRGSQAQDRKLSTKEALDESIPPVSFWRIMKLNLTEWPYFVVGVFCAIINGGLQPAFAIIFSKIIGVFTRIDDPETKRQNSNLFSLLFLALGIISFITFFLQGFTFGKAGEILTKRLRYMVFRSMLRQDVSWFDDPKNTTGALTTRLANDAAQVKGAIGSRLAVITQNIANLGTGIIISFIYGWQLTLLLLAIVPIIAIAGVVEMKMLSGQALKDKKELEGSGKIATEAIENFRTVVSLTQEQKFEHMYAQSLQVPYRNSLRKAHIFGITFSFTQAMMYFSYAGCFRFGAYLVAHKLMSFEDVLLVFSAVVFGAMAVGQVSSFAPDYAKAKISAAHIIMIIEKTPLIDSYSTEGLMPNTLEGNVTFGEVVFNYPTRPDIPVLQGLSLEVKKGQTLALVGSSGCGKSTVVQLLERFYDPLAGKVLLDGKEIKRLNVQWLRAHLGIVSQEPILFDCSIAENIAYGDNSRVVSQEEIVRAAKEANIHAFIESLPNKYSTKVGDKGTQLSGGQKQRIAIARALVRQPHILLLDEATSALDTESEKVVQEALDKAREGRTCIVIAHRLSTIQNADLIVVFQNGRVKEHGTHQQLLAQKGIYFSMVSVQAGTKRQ
MRP2/3, sequence (O15438 whole entry): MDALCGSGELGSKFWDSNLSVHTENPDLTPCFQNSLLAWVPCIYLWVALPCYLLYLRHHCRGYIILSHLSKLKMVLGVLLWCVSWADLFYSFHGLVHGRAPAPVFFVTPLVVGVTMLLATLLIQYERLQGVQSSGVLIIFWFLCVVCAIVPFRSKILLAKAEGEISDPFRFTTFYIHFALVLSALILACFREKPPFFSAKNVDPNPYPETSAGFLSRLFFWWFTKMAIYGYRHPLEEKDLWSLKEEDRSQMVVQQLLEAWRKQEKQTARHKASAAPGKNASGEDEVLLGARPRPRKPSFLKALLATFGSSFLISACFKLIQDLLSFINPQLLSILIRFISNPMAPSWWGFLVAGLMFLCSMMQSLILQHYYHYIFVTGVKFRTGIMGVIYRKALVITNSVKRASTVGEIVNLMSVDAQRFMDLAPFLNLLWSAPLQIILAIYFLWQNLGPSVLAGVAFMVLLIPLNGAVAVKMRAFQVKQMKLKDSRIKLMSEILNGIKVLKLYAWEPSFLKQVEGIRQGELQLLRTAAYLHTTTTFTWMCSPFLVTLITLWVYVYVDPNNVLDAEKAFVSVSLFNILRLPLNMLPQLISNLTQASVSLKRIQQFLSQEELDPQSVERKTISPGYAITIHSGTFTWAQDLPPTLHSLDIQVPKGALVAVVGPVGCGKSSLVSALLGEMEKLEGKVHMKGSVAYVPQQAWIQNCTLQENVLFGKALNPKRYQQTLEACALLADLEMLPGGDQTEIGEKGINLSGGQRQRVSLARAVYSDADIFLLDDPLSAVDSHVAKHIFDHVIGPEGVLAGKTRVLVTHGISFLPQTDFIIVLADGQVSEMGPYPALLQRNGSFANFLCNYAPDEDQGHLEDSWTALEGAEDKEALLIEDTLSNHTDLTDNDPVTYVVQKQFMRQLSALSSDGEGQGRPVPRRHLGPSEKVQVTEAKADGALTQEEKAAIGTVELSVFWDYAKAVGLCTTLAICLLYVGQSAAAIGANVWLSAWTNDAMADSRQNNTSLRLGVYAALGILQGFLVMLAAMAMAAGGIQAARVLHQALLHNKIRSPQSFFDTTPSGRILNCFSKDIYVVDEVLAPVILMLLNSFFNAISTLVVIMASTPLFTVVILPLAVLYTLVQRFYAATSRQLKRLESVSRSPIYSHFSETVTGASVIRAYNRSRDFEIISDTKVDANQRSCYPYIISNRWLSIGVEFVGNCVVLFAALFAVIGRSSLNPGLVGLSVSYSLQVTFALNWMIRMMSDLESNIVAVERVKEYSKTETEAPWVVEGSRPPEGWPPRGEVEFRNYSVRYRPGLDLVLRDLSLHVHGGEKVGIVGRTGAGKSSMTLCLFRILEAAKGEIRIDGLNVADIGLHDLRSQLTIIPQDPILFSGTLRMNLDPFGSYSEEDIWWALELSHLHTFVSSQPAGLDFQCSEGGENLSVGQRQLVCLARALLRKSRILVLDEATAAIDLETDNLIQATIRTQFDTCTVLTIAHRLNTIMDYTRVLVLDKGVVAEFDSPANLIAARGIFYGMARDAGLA
BSEP, sequence (O95342 whole entry): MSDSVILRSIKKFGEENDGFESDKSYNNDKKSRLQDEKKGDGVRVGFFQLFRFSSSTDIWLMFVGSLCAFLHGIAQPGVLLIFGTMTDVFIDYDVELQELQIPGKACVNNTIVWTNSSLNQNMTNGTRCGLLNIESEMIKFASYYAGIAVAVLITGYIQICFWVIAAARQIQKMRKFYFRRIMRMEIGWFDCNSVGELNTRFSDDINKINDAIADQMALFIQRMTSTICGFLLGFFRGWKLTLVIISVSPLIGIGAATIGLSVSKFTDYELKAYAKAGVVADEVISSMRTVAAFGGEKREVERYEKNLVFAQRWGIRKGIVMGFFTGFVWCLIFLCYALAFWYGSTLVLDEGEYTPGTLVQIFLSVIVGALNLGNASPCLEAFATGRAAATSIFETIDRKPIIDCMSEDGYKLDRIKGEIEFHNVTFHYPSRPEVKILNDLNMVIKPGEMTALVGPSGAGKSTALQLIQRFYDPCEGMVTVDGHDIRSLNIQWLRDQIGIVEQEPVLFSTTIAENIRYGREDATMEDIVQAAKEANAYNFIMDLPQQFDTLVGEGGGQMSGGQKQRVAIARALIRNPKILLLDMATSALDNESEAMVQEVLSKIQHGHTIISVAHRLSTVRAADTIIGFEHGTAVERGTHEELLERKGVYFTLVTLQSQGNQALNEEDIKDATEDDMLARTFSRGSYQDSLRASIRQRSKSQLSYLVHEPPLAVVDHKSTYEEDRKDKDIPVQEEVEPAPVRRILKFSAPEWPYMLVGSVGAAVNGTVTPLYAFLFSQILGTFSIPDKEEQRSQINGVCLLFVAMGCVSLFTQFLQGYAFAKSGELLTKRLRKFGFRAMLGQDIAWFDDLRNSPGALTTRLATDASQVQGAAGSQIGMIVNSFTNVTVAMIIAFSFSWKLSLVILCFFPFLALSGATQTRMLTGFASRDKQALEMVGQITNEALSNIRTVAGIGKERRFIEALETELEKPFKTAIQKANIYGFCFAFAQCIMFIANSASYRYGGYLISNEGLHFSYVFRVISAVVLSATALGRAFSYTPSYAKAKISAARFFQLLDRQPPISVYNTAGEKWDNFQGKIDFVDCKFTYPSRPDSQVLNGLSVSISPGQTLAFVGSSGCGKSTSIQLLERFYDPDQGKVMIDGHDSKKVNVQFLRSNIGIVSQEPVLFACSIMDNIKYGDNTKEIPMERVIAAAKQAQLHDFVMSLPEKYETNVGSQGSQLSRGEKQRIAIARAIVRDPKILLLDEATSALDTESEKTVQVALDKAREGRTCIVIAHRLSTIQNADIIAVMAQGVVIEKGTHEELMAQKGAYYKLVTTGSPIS

Compound | in vitro inhibition of P-gp (P-gp) | in vitro inhibition of BSEP (BSEP) | in vitro inhibition of BCRP (BCRP) | decrease of exposure on reducing Odalasvir dosing from once a day to every other day ([1]; 50 mg) | observed exposure in Cohort 1 / group (i) versus anticipated ([1]; Compound (III) 400 mg, ODV 50 mg QD, SMV 100 mg QD) | in vitro inhibition of MRP3 (MRP2/3) | in vitro inhibition of MRP2 (MRP2) | t1/2term ([2]; Arm 1 (reference): single agents, single oral dose) [min] | t1/2term ([2]; Arm 2: FDC02, single oral dose) [min] | t1/2term ([2]; Arm 3: FDC04, single oral dose) [min] | t1/2term ([2]; Arm 4: FDC01, single oral dose) [min] | Tmax ([2]; human, in vivo, Arm 1 (reference): single agents, single oral dose, median [range]) [min] | IC50 (CYP) [µM]
COC(=O)N[C@H](C(=O)N1[C@H](c2nc3cc(-c4cc5ccc4CCc4ccc(c(-c6ccc7[nH]c([C@@H]8C[C@@H]9CCCC[C@@H]9N8C(=O)[C@@H](NC(=O)OC)C(C)C)nc7c6)c4)CC5)ccc3[nH]2)C[C@@H]2CCCC[C@@H]21)C(C)C [ODV, methyl [(2S)-1-[(2S,3aS,7aS)-2-[6-[11-[2-[(2S,3aS,7aS)-1-[(2S)-2-[(methoxycarbonyl)amino]-3-methylbutanoyl]octahydro-1H-indol-2-yl]-1H-benzimidazol-6-yl]tricyclo[8.2.2.2^4,7]hexadeca-1(12),4,6,10,13,15-hexaen-5-yl]-1H-benzimidazol-2-yl]octahydro-1H-indol-1-yl]-3-methyl-1-oxobutan-2-yl]carbamate] | moderate inhibition | no inhibition | no inhibition | proportionally | higher than anticipated | no inhibition | no inhibition |  |  |  |  |  | 
CC(C)OC(=O)C(C)N[P@](=O)(OC[C@@]1(F)O[C@@H](n2ccc(=O)[nH]c2=O)[C@](C)(O)[C@@H]1O)Oc1ccccc1 (stereo in doubt) [Compound (III)] | no in vitro inhibition |  | no in vitro inhibition |  |  |  |  | 36 ± 6 | 42 ± 12 | 42 ± 6 | 36 ± 6 | 120 | > 26
